Tests used:
Experiment in all cases: drug sensitivity score (DSS) from 5-point dose-response viability curve (DSS (area-under-curve based score)); higher = more sensitive (stronger growth inhibition or killing); extreme values may be limits of the assay
Details in all cases: exposure time: 72 h; concentration range: 5 concentrations over 10,000-fold range
OVCAR5 = system: OVCAR5
How it was run: (§1)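 Drug sensitivity scores were calculated in Breeze software for each cell line and drug pair; higher scores indicate more sensitivity. A score of zero indicates no response. The underlying assay used 384-well plates: drugs were placed by an Echo 550 acoustic dispenser at five concentrations spanning a 10,000-fold range, 1,500 ovarian cancer or normal ovarian cells were added per well, and cells were kept 3 days at 37°C, 5% CO2. Viability was then measured with CellTiter-Glo luminescence on a PHERAstar FS.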

COV362 = system: COV362
How it was run: as §1

OV90 = system: OV90
How it was run: as §1

COV318 = system: COV318
How it was run: as §1

JHOS2 = system: JHOS2
How it was run: as §1

HOSE2C = system: HOSE2C
How it was run: as §1

HOSE1C = system: HOSE1C
How it was run: as §1

Kuramochi = system: Kuramochi
How it was run: as §1

OVCAR8 = system: OVCAR8
How it was run: as §1

CAOV3 = system: CAOV3
How it was run: as §1

OVCAR4 = system: OVCAR4
How it was run: as §1

Ovsaho = system: Ovsaho
How it was run: as §1

SMILES | drug sensitivity score (OVCAR5) | drug sensitivity score (COV362) | drug sensitivity score (OV90) | drug sensitivity score (COV318) | drug sensitivity score (JHOS2) | drug sensitivity score (HOSE2C) | drug sensitivity score (HOSE1C) | drug sensitivity score (Kuramochi) | drug sensitivity score (OVCAR8) | drug sensitivity score (CAOV3) | drug sensitivity score (OVCAR4) | drug sensitivity score (Ovsaho)
Cn1c(=O)n(-c2ccc(C(C)(C)C#N)cc2)c2c3cc(-c4cnc5ccccc5c4)ccc3ncc21 [Dactolisib] | 15 | 3.7 | 16.7 | 13.4 | 13.7 | 13.9 | 20.5 | 14.4 | 14.4 | 11 | 15.3 | 15.8
S=c1[nH]cnc2nc[nH]c12 [Mercaptopurine] | 7.3 | 6.4 | 4.4 | 0.1 | 4.1 | 0 | 0 | 7.7 | 8.6 | 12.4 | 12.3 | 5.5
Nc1cc(C(F)(F)F)c(-c2cc(N3CCOCC3)nc(N3CCOCC3)n2)cn1 [Buparlisib] | 8.8 | 3.8 | 5.1 | 4.6 | 4.6 | 8.8 | 8.6 | 6.1 | 7.7 | 8.7 | 5.3 | 6.5
S=C(NCc1ccc2c(c1)OCO2)N1CCN(c2ncnc3c2oc2ccccc23)CC1 [Amuvatinib] | 1.8 | 0 | 3.2 | 0.1 | 0 | 0 | 0 | 0.2 | 7.9 | 2.1 | 0.9 | 0.1
COCCNCc1ccc(-c2cc3nccc(Oc4ccc(NC(=O)C5(C(=O)Nc6ccc(F)cc6)CC5)cc4F)c3s2)nc1 [Sitravatinib] | 4.5 | 2.3 | 1.6 | 0.5 | 1.2 | 3.3 | 2.6 | 2.5 | 0.5 | 1.9 | 0.7 | 0
O=C1Cc2cc(C(=O)NC3C[C@H]4CC[C@@H](C3)N4S(=O)(=O)CC3CCN(CCCC(F)(F)F)CC3)c(Cl)cc2N1 (stereo not given in full) | 0 | 0 | 0.6 | 0 | 0 | 0 | 0 | 0 | 0 | 0 | 0 | 0
Cc1ccc(-c2cc(C(F)(F)F)nn2-c2ccc(S(N)(=O)=O)cc2)cc1 [Celecoxib] | 0 | 0 | 0 | 0 | 0 | 0 | 0 | 0 | 0 | 0 | 0 | 0
COc1cc2c(NC3CCN(C(C)C)CC3)nc(N3CCC(F)(F)CC3)nc2cc1OCCCN1CCCC1 [UNC0642] | 1 | 0.9 | 4.4 | 0 | 0 | 0 | 0 | 0 | 0.7 | 0.2 | 0 | 0
O=C(Nc1cccc(Nc2ncc(Br)c(NCCc3cnc[nH]3)n2)c1)N1CCCC1 [BX-912] | 2.4 | 1.3 | 7.4 | 0.4 | 2.5 | 8 | 4.5 | 1.4 | 4.7 | 10.3 | 3.7 | 3.5
O=C(O)CNC(=O)c1c(O)c2ccccc2n(Cc2ccccc2)c1=O [IOX-2] | 0 | 0 | 0 | 0 | 0 | 0 | 0.1 | 0 | 0 | 0 | 0 | 0
Cc1cc(Nc2cc(N3CCN(C)CC3)nc(/C=C/c3ccccc3)n2)n[nH]1 [ENMD-2076] | 9.6 | 6.3 | 8.4 | 4.9 | 5.1 | 10.3 | 7.7 | 8.5 | 8 | 10.3 | 5.8 | 8.8
CCS(=O)(=O)Nc1ccc(Oc2ccc(F)cc2F)c(-c2cn(C)c(=O)c3[nH]ccc23)c1 [Mivebresib] | 20.2 | 9.4 | 22.1 | 6.4 | 18.4 | 25.6 | 30.7 | 22.6 | 24.7 | 25.3 | 18.3 | 22.8
C=CC[C@@H]1/C=C(\C)C[C@H](C)C[C@H](OC)[C@H]2O[C@@](O)(C(=O)C(=O)N3CCCC[C@H]3C(=O)O[C@H](/C(C)=C/[C@@H]3CC[C@@H](O)[C@H](OC)C3)[C@H](C)[C@@H](O)CC1=O)[C@H](C)C[C@@H]2OC [Tacrolimus] | 0.5 | 0.1 | 0 | 0 | 1.8 | 0 | 0.3 | 1 | 3.4 | 0.5 | 0.3 | 0.7
N#Cc1ccc(C(c2ccc(C#N)cc2)n2cncn2)cc1 [Letrozole] | 0 | 0 | 0 | 0 | 0 | 0 | 0 | 0 | 0 | 0 | 0 | 0
Nc1nc(OCc2cc(Br)cs2)c2[nH]cnc2n1 [Lomeguatrib] | 0 | 0 | 0 | 0.4 | 0 | 0 | 0 | 0.8 | 0 | 0 | 0 | 2.5
COc1cc(N2CCC(N3CCN(C)CC3)CC2)ccc1Nc1ncc(Cl)c(Nc2ccccc2P(C)(C)=O)n1 [Brigatinib] | 3.7 | 1.6 | 4 | 3.5 | 2.1 | 2.9 | 0.3 | 3.5 | 0 | 3.3 | 1.7 | 4.3
Cc1c(C(=O)Nc2ccc(N3C[C@@H](C)O[C@@H](C)C3)nc2)cccc1-c1ccc(OC(F)(F)F)cc1 [Sonidegib] | 1.2 | 0 | 1.3 | 2.6 | 2.2 | 1.8 | 1.6 | 4.7 | 3.3 | 0 | 0.2 | 2.5
O=C(O)C1(C(=O)O)CCC1.[NH2-].[NH2-].[Pt+2] [Carboplatin] | 4.7 | 0 | 3.6 | 5.5 | 3.1 | 5 | 7.8 | 4.9 | 1.9 | 6.1 | 5.6 | 5.5
CC[C@@H](C(=O)[C@@H](C)[C@@H](O)[C@H](C)[C@@H]1O[C@@H]([C@@H](CC)C(=O)O)CC[C@@H]1C)[C@H]1O[C@]2(C=C[C@@H](O)[C@]3(CC[C@@](C)([C@H]4CC[C@](O)(CC)[C@H](C)O4)O3)O2)[C@H](C)C[C@@H]1C [Salinomycin] | 13.2 | 8.2 | 19.4 | 13.4 | 18.3 | 22.1 | 21.2 | 21 | 17.9 | 15.4 | 14.2 | 27.1
CC[C@@H]1C(=O)OC[C@@H]1Cc1cncn1C [Pilocarpine] | 0 | 0 | 0 | 0 | 0.5 | 0 | 0 | 0 | 0 | 0 | 0 | 0
c1cc(CN2CCCNCCNCCCNCC2)ccc1CN1CCCNCCNCCCNCC1 [Plerixafor] | 0 | 0 | 0 | 0 | 0 | 0 | 0 | 0 | 0 | 0 | 0 | 0
CNC(=O)c1ccc(N2C(=S)N(c3ccc(C#N)c(C(F)(F)F)c3)C(=O)C2(C)C)cc1F [Enzalutamide] | 0.2 | 0 | 0 | 0.4 | 0 | 0 | 0 | 1.7 | 0 | 0 | 0.1 | 2.3
CC(C)(C)NC(=O)[C@H]1CC[C@H]2[C@@H]3CC[C@H]4NC(=O)C=C[C@]4(C)[C@H]3CC[C@]12C [Finasteride] | 0 | 0 | 0 | 0 | 0 | 0 | 0 | 0 | 0 | 0 | 0 | 0
Cn1c(Nc2ccc(C(F)(F)F)cc2)nc2cc(Oc3ccnc(-c4ncc(C(F)(F)F)[nH]4)c3)ccc21 [NVP-RAF265] | 0.4 | 0 | 4.2 | 0 | 1.2 | 4.5 | 6.9 | 0 | 1.9 | 2.2 | 0.3 | 1.7
C[C@@H]1CN(Cc2ccc(F)cc2)[C@@H](C)CN1C(=O)c1cc2c(C(=O)C(=O)N(C)C)cn(C)c2cc1Cl [Talmapimod] | 0 | 0 | 0 | 0 | 0 | 0 | 0 | 0 | 0 | 0 | 0 | 0
CC[C@H](C)C(=O)O[C@H]1C[C@H](O)C=C2C=C[C@H](C)[C@H](CC[C@@H](O)C[C@@H](O)CC(=O)O)[C@H]21 [Pravastatin] | 0 | 0 | 0 | 0 | 0 | 0 | 0 | 0 | 0 | 0 | 0 | 0
O=C(NC1CCNCC1)c1n[nH]cc1NC(=O)c1c(Cl)cccc1Cl [AT7519] | 13.5 | 12 | 14.2 | 6.2 | 18 | 8 | 16.6 | 9.3 | 15.5 | 13.9 | 9.3 | 8.9
CCCCOc1nc(N)c2c(n1)N(Cc1cccc(CN3CCCC3)c1)CC(=O)N2 [Vesatolimod] | 0 | 0 | 0 | 0 | 0 | 0 | 0 | 1 | 0 | 0 | 0.4 | 0
Cn1cc(-c2cnn3c(N)c(Br)c([C@@H]4CCCNC4)nc23)cn1 [MK-8776] | 0.4 | 0 | 1.1 | 0 | 0 | 5.1 | 5.1 | 0 | 1 | 1.3 | 0 | 0
CN1CCC(CNc2ccc3ncc(-c4cccc(OC(F)(F)F)c4)n3n2)CC1 [SGI-1776] | 6.9 | 4.3 | 5.6 | 4.7 | 5.2 | 7.2 | 8 | 5.1 | 6 | 5.1 | 3.3 | 7.7
